Source: patent US10758468B2, “Solubilizer for cosmetic preparations” (Symrise AG, priority 2010, dated 2020)

Test: Assessment of turbidity (transparency) of compositions at production and after 3 months storage
Conditions: water to 100; for Assessment of turbidity: Storage at 5° C. / Assessment of turbidity: Storage at 40° C.: after 3 months
[1] = 0.10 wt. % bisabolol, 2.00 Solubilizer U.53787M, 0.50 pentane-1,2-diol
[2] = 0.10 wt. % bisabolol, 2.00 Solubilizer U.53787M, 1.00 1,2-propylene glycol
[3] = 0.10 wt. % bisabolol, 2.00 Solubilizer U.53787M, 2.50 pentane-1,2-diol
[4] = 0.10 wt. % bisabolol, 2.00 Solubilizer U.53787M, 3.00 1,2-propylene glycol
[5] = 0.10 wt. % bisabolol, 2.00 Solubilizer U.53787M, 4.00 glycerol
[6] = 0.20 wt. % bisabolol, 2.00 Solubilizer A, 5.00 glycerol
[7] = 0.40 wt. % menthyl lactate, 2.00 Solubilizer U.53787M, 5.00 glycerol
[8] = 0.40 wt. % menthyl lactate, 2.00 Solubilizer U.53787M, 5.00 pentane-1,2-diol
[9] = 0.50 wt. % menthyl lactate, 2.00 Solubilizer B, 5.00 glycerol

Protocol: The transparency (clarity) of the compositions was determined after 3 months at the constant storage temperature stated in each case.

CC(C)=CCC[C@](C)(O)C1CC=C(C)CC1 (stereo partly shown) [Bisabolol]
Assessment of turbidity: Production at 25° [1]: clear
Assessment of turbidity: Production at 25° [2]: clear
Assessment of turbidity: Production at 25° [3]: clear
Assessment of turbidity: Production at 25° [4]: clear
Assessment of turbidity: Production at 25° [5]: clear
Assessment of turbidity: Production at 25° [6]: clear
Assessment of turbidity: Storage at 5° C. [1]: clear
Assessment of turbidity: Storage at 40° C. [1]: clear
Assessment of turbidity: Storage at 5° C. [2]: clear
Assessment of turbidity: Storage at 40° C. [2]: clear
Assessment of turbidity: Storage at 5° C. [3]: clear
Assessment of turbidity: Storage at 40° C. [3]: clear
Assessment of turbidity: Storage at 5° C. [4]: clear
Assessment of turbidity: Storage at 40° C. [4]: clear
Assessment of turbidity: Storage at 5° C. [5]: clear
Assessment of turbidity: Storage at 40° C. [5]: clear
Assessment of turbidity: Storage at 5° C. [6]: clear
Assessment of turbidity: Storage at 40° C. [6]: clear

CC(C)(C)C(=O)C(Oc1ccc(Cl)cc1)n1ccnc1 (stereo not shown) [Crinipan® AD, climbazole]
Amount of organic substance incorporated with the composition remaining clear and stable (framework formulation: 2.00 wt. % Solubilizer U.53787M, 5.00 glycerol, production at 25°, storage 3 months at 5° C. and 40° C.): 0.10 wt. %

CC1CCC(C(C)C)C(OC(=O)C(C)O)C1 (stereo not shown) [Frescolat ® ML, menthyl lactate]
Assessment of turbidity: Production at 25° [7]: clear
Assessment of turbidity: Production at 25° [8]: clear
Assessment of turbidity: Production at 25° [9]: clear
Assessment of turbidity: Storage at 5° C. [7]: clear
Assessment of turbidity: Storage at 40° C. [7]: clear
Assessment of turbidity: Storage at 5° C. [8]: clear
Assessment of turbidity: Storage at 40° C. [8]: clear
Assessment of turbidity: Storage at 5° C. [9]: clear
Assessment of turbidity: Storage at 40° C. [9]: clear
